Results from publication PMC9757072, “NrnA is a 5′-3′ exonuclease that processes short RNA substrates in vivo and in vitro” (Nucleic Acids Research, 2022).

Tests used:
NrnABs = molecular target: T1, NrnABs (Bacillus subtilis, UniProt O34600, D156N/D80N); experiment: DRaCALA
T1 construct: gene nrnA

OrnEc = molecular target: T2, OrnEc (Escherichia coli, UniProt P0A784); experiment: cleavage of […]'-32P RNA mixture, denaturing PAGE; format: biochemical; settings: 20 nM enzyme; GG is the 2-mer of the 2-7 and 10-mer mix; pH 8.0, 100 mM NaCl, Mg or Mn; labelled compound
T2 sequence (P0A784 1-181): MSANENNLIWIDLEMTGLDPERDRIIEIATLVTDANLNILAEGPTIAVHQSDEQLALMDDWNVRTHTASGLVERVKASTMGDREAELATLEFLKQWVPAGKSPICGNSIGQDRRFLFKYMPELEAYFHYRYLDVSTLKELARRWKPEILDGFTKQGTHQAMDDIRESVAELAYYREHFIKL

CnpBMt = CnpBMt (Mycobacterium tuberculosis, UniProt P71615); experiment: cleavage of […]-c-di-AMP, denaturing PAGE; format: biochemical; settings: 100 nM enzyme, 1 uM substrate; pH 8.0, 300 mM NaCl, 200 uM MnCl2, room temperature; labelled compound
CnpBMt, sequence (P71615 whole entry): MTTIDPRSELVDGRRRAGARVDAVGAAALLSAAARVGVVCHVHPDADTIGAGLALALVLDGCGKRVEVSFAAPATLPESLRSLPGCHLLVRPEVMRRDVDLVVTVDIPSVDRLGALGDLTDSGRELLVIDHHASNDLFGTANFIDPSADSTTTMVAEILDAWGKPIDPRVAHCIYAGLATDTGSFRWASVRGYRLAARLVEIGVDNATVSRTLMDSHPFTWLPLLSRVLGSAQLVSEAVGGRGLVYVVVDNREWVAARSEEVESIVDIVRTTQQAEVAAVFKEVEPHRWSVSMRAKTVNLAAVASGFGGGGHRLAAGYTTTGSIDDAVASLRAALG

GdpP(82–659)Bs = molecular target: T3, GdpP(82–659)Bs (Bacillus subtilis, UniProt P37484); experiment: cleavage of […]-c-di-AMP, denaturing PAGE; format: biochemical; settings: 100 nM enzyme, 1 uM substrate; pH 8.0, 300 mM NaCl, 200 uM MnCl2, room temperature; labelled compound; positive control
T3 construct: cytoplasmic portion, residues 82-659; N-terminal 6xHis tag kept; expressed in E. coli
T3 sequence (P37484 82-659): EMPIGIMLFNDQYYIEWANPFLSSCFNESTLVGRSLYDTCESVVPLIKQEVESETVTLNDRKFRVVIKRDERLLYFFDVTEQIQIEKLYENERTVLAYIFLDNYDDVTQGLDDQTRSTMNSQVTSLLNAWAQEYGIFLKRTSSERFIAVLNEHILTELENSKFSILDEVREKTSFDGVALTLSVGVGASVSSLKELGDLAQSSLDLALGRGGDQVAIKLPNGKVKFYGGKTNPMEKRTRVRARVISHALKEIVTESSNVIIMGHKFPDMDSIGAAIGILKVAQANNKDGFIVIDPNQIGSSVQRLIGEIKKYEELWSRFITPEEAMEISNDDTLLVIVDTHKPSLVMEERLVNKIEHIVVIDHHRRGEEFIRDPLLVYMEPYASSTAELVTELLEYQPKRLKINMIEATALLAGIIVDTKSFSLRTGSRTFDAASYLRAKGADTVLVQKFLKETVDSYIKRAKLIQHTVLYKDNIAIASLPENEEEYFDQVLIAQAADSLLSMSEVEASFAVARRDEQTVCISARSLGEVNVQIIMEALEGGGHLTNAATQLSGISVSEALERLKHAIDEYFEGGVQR

CnpBMs = molecular target: T4, CnpBMs (Mycolicibacterium smegmatis, UniProt A0QVM9); experiment: cleavage of […]-c-di-AMP, denaturing PAGE; format: biochemical; settings: 100 nM enzyme, 1 uM substrate; pH 8.0, 300 mM NaCl, 200 uM MnCl2, room temperature; labelled compound
T4 construct: gene MSMEG_2630
T4 sequence (A0QVM9 1-340): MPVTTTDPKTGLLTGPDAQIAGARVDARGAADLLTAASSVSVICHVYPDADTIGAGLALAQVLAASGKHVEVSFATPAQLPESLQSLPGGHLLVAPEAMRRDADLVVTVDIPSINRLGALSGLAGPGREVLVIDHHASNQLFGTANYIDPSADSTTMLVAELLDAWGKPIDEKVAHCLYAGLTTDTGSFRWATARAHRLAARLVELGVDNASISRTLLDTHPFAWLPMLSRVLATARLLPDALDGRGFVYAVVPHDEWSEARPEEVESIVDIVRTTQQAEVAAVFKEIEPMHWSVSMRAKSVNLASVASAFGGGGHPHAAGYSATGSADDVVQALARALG

[1] = substrate: Nc1ncnc2c1ncn2[C@@H]1O[C@H](COP(=O)(O)O[C@H]2[C@@H](O)[C@H](n3cnc4c(N)ncnc43)O[C@@H]2COP(=O)(O)O)[C@@H](O)[C@H]1O; experiment: continuous PPDK/luciferase coupled assay of AMP release; format: biochemical, Bacillus subtilis; settings: 10 mM MgCl2, 0.5 mM MnCl2, pH 8.0, 25 C, value assigned to AA by printed order (AA or ACC), 5'-phosphate inferred from 2 AMP per AA
[2] = substrate: Nc1ccn([C@@H]2O[C@H](COP(=O)(O)O[C@H]3[C@@H](O)[C@H](n4ccc(N)nc4=O)O[C@@H]3COP(=O)(O)O[C@H]3[C@@H](O)[C@H](n4cnc5c(N)ncnc54)O[C@@H]3COP(=O)(O)O)[C@@H](O)[C@H]2O)c(=O)n1; experiment: as above; format: biochemical, Bacillus subtilis; settings: 10 mM MgCl2, 0.5 mM MnCl2, pH 8.0, 25 C, value assigned to ACC by printed order (AA or ACC), 5'-phosphate inferred from AMP release

T1 sequence (O34600 whole entry D80N/D156N): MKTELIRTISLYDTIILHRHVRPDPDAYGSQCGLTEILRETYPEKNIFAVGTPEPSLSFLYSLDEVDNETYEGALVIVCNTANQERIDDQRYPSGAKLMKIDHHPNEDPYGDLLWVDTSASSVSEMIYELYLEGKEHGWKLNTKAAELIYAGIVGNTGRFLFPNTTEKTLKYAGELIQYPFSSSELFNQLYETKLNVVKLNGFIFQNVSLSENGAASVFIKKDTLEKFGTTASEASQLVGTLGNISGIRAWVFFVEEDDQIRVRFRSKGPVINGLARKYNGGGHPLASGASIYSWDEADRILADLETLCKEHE

Q: Which Kd (NrnABs) does the source give for Nc1ncnc2c1ncn2[C@@H]1O[C@H](COP(=O)(O)O[C@H]2[C@@H](O)[C@H](n3ccc(=O)[nH]c3=O)O[C@@H]2COP(=O)(O)O)[C@@H](O)[C@H]1O [UA] here?
A: 1290 ± 180 nM

Q: How did the “cleavage of 5'-32P RNA mixture, denaturing PAGE” value (OrnEc) turn out when Nc1nc2c(ncn2[C@@H]2O[C@H](COP(=O)(O)O[C@H]3[C@@H](O)[C@H](n4cnc5c(=O)[nH]c(N)nc54)O[C@@H]3COP(=O)(O)O)[C@@H](O)[C@H]2O)c(=O)[nH]1 [GG] was run?
A: dinucleotides are rapidly processed, and only minimal trinucleotide processing was seen

Q: And the Kd (NrnABs)?
A: 210 nM

Q: For Nc1ncnc2c1ncn2[C@@H]1O[C@H](COP(=O)(O)O[C@H]2[C@@H](O)[C@H](n3cnc4c(N)ncnc43)O[C@@H]2COP(=O)(O)O)[C@@H](O)[C@H]1O [AA], which Kd (NrnABs) is on record?
A: 450 ± 30 nM

Q: What does the source list for Nc1ncnc2c1ncn2[C@@H]1O[C@@H]2COP(=O)(O)O[C@H]3[C@@H](O)[C@H](n4cnc5c(N)ncnc54)O[C@@H]3COP(=O)(O)O[C@H]2[C@H]1O [c-di-AMP]?
A: cleavage of 32P-c-di-AMP, denaturing PAGE (CnpBMt): only CnpB demonstrated an ability to directly hydrolyze c-di-AMP to AMP; cleavage of 32P-c-di-AMP, denaturing PAGE (GdpP(82–659)Bs): cytoplasmic portion of B. subtilis GdpP, which is known to hydrolyze c-di-AMP; cleavage of 32P-c-di-AMP, denaturing PAGE (CnpBMs): All CnpB-like proteins exhibited robust hydrolysis of c-di-AMP

Q: Which Kd (NrnABs) does the source give for Nc1ccn([C@@H]2O[C@H](COP(=O)(O)O)[C@@H](OP(=O)(O)OC[C@H]3O[C@@H](n4cnc5c(N)ncnc54)[C@H](O)[C@@H]3O)[C@H]2O)c(=O)n1 [CA] here?
A: 2270 ± 130 nM

Q: Which Kd (NrnABs) does the source give for Nc1nc2c(ncn2[C@@H]2O[C@H](COP(=O)(O)O)[C@@H](OP(=O)(O)OC[C@H]3O[C@@H](n4cnc5c(N)ncnc54)[C@H](O)[C@@H]3O)[C@H]2O)c(=O)[nH]1 [GA] here?
A: 360 ± 130 nM

B1: NrnABs (Bacillus subtilis subsp. subtilis str. 168) (protein)
chain: MKTELIRTISLYDTIILHRHVRPDPDAYGSQCGLTEILRETYPEKNIFAVGTPEPSLSFLYSLDEVDNETYEGALVIVCDTANQERIDDQRYPSGAKLMKIDHHPNEDPYGDLLWVDTSASSVSEMIYELYLEGKEHGWKLNTKAAELIYAGIVGDTGRFLFPNTTEKTLKYAGELIQYPFSSSELFNQLYETKLNVVKLNGFIFQNVSLSENGAASVFIKKDTLEKFGTTASEASQLVGTLGNISGIRAWVFFVEEDDQIRVRFRSKGPVINGLARKYNGGGHPLASGASIYSWDEADRILADLETLCKEHE
notes: full length; N-terminal 10xHis-SUMO tag cleaved by bdSENP1; expressed in E. coli T7 Express
Q: With B1 as the molecule, how does the Km [1] read?
A: 90 µM

Q: And the Km [2]?
A: 325 µM
